Data: patent US9446015B2, “Quinone based nitric oxide donating compounds for ophthalmic use” (NICOX SCIENCE IRELAND, priority 2012, dated 2016)

Legend:
[1] = tested on: lipidic peroxidation of membrane lipids in rat hepatocytes (hepatic microsomal membranes); test: In vitro antioxidant activity (TBARS test); assay type: biochemical; settings: Method A (ADP-FeCl3 and NADPH); inhibition of TBARS production after 30 min; read-out: Antioxidant activity IC50 μM (CL 95%)
Protocol: The antioxidant properties of compounds (6) (disclosed in example 1) and compound (23) (disclosed in example 19) and reference antioxidant compounds were assessed after NADPH-induced lipidic peroxidation of membrane lipids in rat hepatocytes using the detection of 2-thiobarbituric acid reactive substances (TBARS) by visible spectroscopy.
Hepatic microsomal membranes from male Wistar rats (200-250 g) were prepared by differential centrifugation (8000 g, 20 min; 120000 g, 1 h) in a HEPES/sucrose buffer (10 mM, 250 mM, pH 7.4) and stored at −80° C. Incubation was performed at 37° C. in a Tris-HCl/KCl (100 mM/150 mM, pH 7.4) containing microsomal membranes (2 mg prot/mL), sodium ascorbate (100 μM), and DMSO solutions of the tested compounds. Lipid peroxidation was initiated by adding ADP-FeCl3 and NADPH (Method A) or 2.5 μM FeSO4 (Method B) (as described by Boschi D. et al., J. Med. Chem. 2006, 49:2886-2897). Aliquots were taken from the incubation mixture at 5, 15, and 30 min and treated with trichloroacetic acid (TCA) 10% w/v. Lipid peroxidation was assessed by spectrophotometric (543 nm) determination of the TBARS consisting mainly of malondialdehyde (MDA). TBARS concentrations (expressed in nmol/mg protein) were obtained by interpolation with a MDA standard curve. The antioxidant activity of tested compounds was evaluated as the percent inhibition of TBARS production with respect to control samples, using the values obtained after 30 min of incubation. IC50 values were calculated by nonlinear regression analysis.

[2] = tested on: rat L-NAME-induced hypertension; test: Systolic blood pressure in rat L-NAME-induced hypertension, single oral dose; assay type: in vivo; settings: Comp. (6) 100 mg/kg oral; 3 hours
Protocol: To assess the in vivo NO-dependent activity, Compound (6) was evaluated for systolic blood pressure (SBP) reduction efficacy in a rat model of NO-deprivation induced by L-NAME and compared with 5-ISMN.
Fasted male SD rats (250-300 g, n=3-5 per group), obtained from Harlan Italy (Correzzana, Milan, Italy) were orally treated with tested compounds or vehicle (DMSO:Methocel 1% 2/98 v/v) in a total volume of 4 ml/kg by gavage. At each time point (1, 3, 6 and 24 h) animals were deeply anesthetized with Zoletil® 100 (3 mg/kg), given intramuscularly. Thereafter, a pressure catheter (Samba Sensors, Harvard Apparatus, UK) was introduced into the common carotid artery for central blood pressure measurement. Pressure transducer was connected to a personal computer, in order to allow real time monitor of the pressure tracing. After 10 minutes of basal recording, L-NAME (50 mg/kg) was administered intraperitoneally and the effect on SBP monitored. When the SBP stabilized (5 minutes without variations) the recording was stopped. To further confirm that functional activity was NO-dependent, at each time point blood ^15N-nitrite levels were measured following the procedure described in Example 12.

[3] = tested on: isolated aortas from rats; test: Ex vivo tolerance evaluation, vascular response of isolated rat aortas; assay type: cell-based; settings: 5-day oral treatment; 5-ISMN 30 mg/kg, Compound (6) 100 mg/kg
Protocol: Thoracic aortas from male New Zealand rabbits or male Sprague Dawley (SD) were used. The aortas were placed immediately in Krebs-HEPES buffer (pH 7.4; composition mM: NaCl 130.0, KCl 3.7, NaHCO3 14.9, KH2PO4 1.2, MgSO4.7H2O 1.2, Glucose 11.0, HEPES 10.0, CaCl2.2H2O 1.6). Connective tissue was removed and aortas were cut into ring segments (4-5 mm in length). Each ring was placed in a 5 mL tissue bath filled with Krebs-HEPES buffer (37° C.) aerated with 95% O2 and 5% CO2 and was attached to a force transducer (Grass FT03), connected to a BIOPAC MP150 System for measurement of the isometric tension. Preparations were allowed to equilibrate for 1 h at a resting tension of 2 g for rabbit aortas and 1 g for rat aortas with changes of the buffer every 15 min. Then the rings were stimulated by exposure to 90 mM KCl (3 times) with intervening washings.
Rat aorta. After equilibration, rat aortas were precontracted with KCl (90 mM) and, when the contraction was stable, a cumulative concentration-response curve to acetylcholine (ACh, 0.01-100 μM) was added. After washout, the rings were precontracted again with KCl (90 mM). When a steady-state level of contraction was obtained, a cumulative concentration-response curve to the tested compounds (0.01-100 μM) was obtained.
Data analysis. Results are given as mean±SEM. Vascular responses are expressed as percentage relaxation and plotted vs concentration. The sensitivity of isolated aorta to different vasodilators is expressed as the concentration that elicited 50% of the maximal responses (EC50). Responses are quantified in terms of EC50 and Emax (maximal vasodilating effect) values, obtained from the concentration-response curve by nonlinear curve fitting, using GraphPad software.
Tolerance to nitrate was further investigated assessing the vascular effects of Compound (6) following repeated treatment compared with 5-ISMN. The vascular response to the compound itself was assessed on isolated aortas from rats orally treated for 5 days with Compound (6) (100 mg/kg). The vascular response was performed as described in Example 6.
Vascular responses were performed 1 h (ISMN) or 3 h (Compound (6)) after the last administration, the concentrations of tested compound that elicited the 50% of the maximal responses (EC50) are shown in Table 4.

[4] = tested on: hypertonic saline-induced IOP increase in rabbits; test: IOP lowering activity in hypertonic saline-induced IOP increase in rabbits; assay type: in vivo, New Zealand White rabbits
From the text: Intraocular pressure (IOP) lowering activity in hypertonic saline-induced IOP increase in rabbits.
This animal model of elevated IOP was used for assessing the intraocular pressure (IOP) lowering activities of some compounds of the invention, timolol, dorzolamide and 5-isosorbide mononitrate.
• compounds (6), (20) and (25) • timolol and dorzolamide that are drugs commonly used for the treatment of glaucoma and ocular hypertension. • Isosorbide mononitrate (5-ISMN) that is a commonly used nitric oxide donor drug.
Timolol, dorzolamide and 5-ISMN were tested as reference compounds. Adults male New Zealand White rabbits weighting 1.8-2.0 Kg were used in the experiments.
IOP was measured using a Tono-Pen XL prior to hypertonic saline injection (basal) and at 30, 60, 120 and 240 min thereafter. Vehicle (5% cremophor-EL; 0.3% DMSO; 0.2 mg/ml BAK in PBS pH 6.0) and all the tested compounds dissolved in the vehicle were instilled as eye drops immediately after hypertonic saline injection. Eyes were randomly assigned to different treatment groups. Vehicle and the tested compounds were directly instilled into the conjunctiva pocket at the desired doses. One drop of 0.4% oxybuprocaine hydrochloride (Novesine, Sandoz) was instilled in each eye immediately before each set of pressure measurements.
Results are reported in Table 6, the ocular hypotensive activities of the tested compounds are expressed as IOP change at 60 and 120 minutes after topical administration versus vehicle and versus the basal IOP.

SMILES: COC1=C(OC)C(=O)C(CCCCCCCCCCO[N+](=O)[O-])=C(C)C1=O [Compound (6), 10-(4,5-dimethoxy-2-methyl-3,6-dioxocyclohexa-1,4-dienyl)decyl nitrate]
- IC50 [1]: 2 µM
- Delta vs basal (mmHg), systolic blood pressure [2]: 14 ± 3.8 mmHg
- vascular sensitivity of aortas of treated animals to the compound itself versus vehicle/control arteries [3]: showed the same sensitivity
- ΔΔ (mmHg), IOP change versus vehicle and versus basal IOP ([4]; 60 min after topical administration): −7.4 ± 2.7 mmHg
- ΔΔ (mmHg), IOP change versus vehicle and versus basal IOP ([4]; 120 min after topical administration): −9.8 ± 2.0 mmHg
